{"source": "ChEMBL document CHEMBL5715954", "about": "“Silencing c-Myc translation as a therapeutic strategy through targeting PI3Kδ and CK1ε in hematological malignancies” (Blood, 2017)", "design_in_all_cases": "scale not given: the % may be the effect or the level left", "key": {"[1]": {"molecular_target": "T1, Serine/threonine-protein kinase PLK4 (Homo sapiens) (UniProt O00444)", "T1 sequence (whole entry)": "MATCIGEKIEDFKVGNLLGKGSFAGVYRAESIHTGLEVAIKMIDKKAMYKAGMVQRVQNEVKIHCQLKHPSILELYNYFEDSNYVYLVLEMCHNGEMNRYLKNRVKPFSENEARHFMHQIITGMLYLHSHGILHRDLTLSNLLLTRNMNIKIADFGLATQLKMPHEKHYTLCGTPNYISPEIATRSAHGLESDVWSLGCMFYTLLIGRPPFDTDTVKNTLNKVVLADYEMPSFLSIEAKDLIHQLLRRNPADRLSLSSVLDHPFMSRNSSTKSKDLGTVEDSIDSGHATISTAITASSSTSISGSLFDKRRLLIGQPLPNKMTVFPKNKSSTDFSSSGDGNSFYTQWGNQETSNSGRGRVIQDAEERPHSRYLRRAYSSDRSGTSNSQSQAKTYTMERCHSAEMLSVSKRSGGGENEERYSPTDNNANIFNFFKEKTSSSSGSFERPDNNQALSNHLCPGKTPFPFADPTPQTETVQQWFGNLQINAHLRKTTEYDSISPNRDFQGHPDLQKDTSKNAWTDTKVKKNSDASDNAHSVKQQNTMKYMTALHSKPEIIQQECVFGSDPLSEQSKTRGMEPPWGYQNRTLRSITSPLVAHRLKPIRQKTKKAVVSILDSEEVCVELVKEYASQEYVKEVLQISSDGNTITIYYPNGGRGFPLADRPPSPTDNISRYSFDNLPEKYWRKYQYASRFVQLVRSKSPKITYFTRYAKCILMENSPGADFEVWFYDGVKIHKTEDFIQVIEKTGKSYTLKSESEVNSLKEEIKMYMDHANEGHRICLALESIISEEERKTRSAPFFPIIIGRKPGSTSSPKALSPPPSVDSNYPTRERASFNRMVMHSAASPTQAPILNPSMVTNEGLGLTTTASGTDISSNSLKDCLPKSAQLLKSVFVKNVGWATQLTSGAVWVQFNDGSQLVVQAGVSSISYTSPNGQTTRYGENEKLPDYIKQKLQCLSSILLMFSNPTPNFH", "assay": "Inhibition of human PLK4 assessed as enzyme activity at 1 uM using casein as substrate preincubated for 20 mins followed by [gamma-33P]-ATP addition and measured after 120 mins by radiometric Hot-SpotSM Kinase assay relative to control"}, "[2]": {"molecular_target": "T2, Kinase suppressor of Ras 2 (Homo sapiens) (UniProt Q6VAB6)", "T2 sequence (whole entry)": "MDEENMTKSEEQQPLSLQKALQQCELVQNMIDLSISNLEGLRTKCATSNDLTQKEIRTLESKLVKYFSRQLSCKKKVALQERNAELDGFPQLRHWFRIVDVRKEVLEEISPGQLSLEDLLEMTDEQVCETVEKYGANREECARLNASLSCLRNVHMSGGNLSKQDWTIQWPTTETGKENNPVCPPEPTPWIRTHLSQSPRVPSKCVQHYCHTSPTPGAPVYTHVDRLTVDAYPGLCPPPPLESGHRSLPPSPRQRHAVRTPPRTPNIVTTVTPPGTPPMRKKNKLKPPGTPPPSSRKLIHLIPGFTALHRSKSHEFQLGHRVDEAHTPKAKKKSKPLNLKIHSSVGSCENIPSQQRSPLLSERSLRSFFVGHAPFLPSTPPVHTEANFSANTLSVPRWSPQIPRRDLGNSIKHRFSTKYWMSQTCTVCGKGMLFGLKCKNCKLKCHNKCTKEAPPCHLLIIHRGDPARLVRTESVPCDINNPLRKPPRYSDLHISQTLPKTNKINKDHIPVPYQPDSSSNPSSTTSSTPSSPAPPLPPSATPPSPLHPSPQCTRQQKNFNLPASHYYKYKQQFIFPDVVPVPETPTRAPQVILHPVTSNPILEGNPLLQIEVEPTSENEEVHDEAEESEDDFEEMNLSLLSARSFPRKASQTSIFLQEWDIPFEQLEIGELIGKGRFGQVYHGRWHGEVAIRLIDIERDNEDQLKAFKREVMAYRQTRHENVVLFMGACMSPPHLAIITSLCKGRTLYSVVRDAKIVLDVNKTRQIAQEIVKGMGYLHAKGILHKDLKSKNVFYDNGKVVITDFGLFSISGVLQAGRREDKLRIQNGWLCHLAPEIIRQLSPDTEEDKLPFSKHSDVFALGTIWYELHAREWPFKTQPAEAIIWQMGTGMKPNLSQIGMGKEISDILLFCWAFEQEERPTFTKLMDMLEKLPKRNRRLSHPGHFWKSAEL", "assay": "Inhibition of human KSR2 assessed as enzyme activity at 1 uM using KRREILSRRPSYR as substrate preincubated for 20 mins followed by [gamma-33P]-ATP addition and measured after 120 mins by radiometric Hot-SpotSM Kinase assay relative to control"}, "[3]": {"molecular_target": "T3, Casein kinase I isoform alpha-like (Homo sapiens) (UniProt Q8N752)", "T3 sequence (whole entry)": "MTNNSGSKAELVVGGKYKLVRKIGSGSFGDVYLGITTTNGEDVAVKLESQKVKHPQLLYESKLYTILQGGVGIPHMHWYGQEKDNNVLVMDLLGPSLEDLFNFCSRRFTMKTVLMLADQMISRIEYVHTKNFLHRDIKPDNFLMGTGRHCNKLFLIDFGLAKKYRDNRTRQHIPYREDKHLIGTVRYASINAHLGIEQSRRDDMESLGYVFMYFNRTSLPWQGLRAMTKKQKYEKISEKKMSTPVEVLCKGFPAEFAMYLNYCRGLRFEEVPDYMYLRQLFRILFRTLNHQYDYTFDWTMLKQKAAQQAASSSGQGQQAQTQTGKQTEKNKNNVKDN", "assay": "Inhibition of human CK1a1L assessed as enzyme activity at 1 uM using KRRRAL[pS]VASLPGL as substrate preincubated for 20 mins followed by [gamma-33P]-ATP addition and measured after 120 mins by radiometric Hot-SpotSM Kinase assay relative to control"}}}
{"smiles": "CC[C@H](Nc1ncnc2[nH]cnc12)c1nc2cccc(F)c2c(=O)n1-c1ccccc1", "values": [{"measurement": "Activity", "setting": "[1]", "value": 99.9, "unit": "%"}, {"measurement": "Activity", "setting": "[2]", "value": 95, "unit": "%"}, {"measurement": "Activity", "setting": "[3]", "value": 101, "unit": "%"}]}
{"smiles": "C[C@H](Nc1ncnc2nc[nH]c12)c1cc2cccc(Cl)c2c(=O)n1-c1ccccc1", "values": [{"measurement": "Activity", "setting": "[1]", "value": 91, "unit": "%"}, {"measurement": "Activity", "setting": "[2]", "value": 91.4, "unit": "%"}, {"measurement": "Activity", "setting": "[3]", "value": 99.5, "unit": "%"}]}
{"smiles": "CC(C)Oc1ccc(-c2nn([C@@H](C)c3oc4ccc(F)cc4c(=O)c3-c3cccc(F)c3)c3ncnc(N)c23)cc1F", "note": "[UMBRALISIB]", "values": [{"measurement": "Activity", "setting": "[1]", "value": 102, "unit": "%"}, {"measurement": "Activity", "setting": "[2]", "value": 96.2, "unit": "%"}, {"measurement": "Activity", "setting": "[3]", "value": 103, "unit": "%"}]}
